Test results published in the supplement of paper PMC8671470.
Counter-ions that a name gives are not always drawn.

Experiments:
Settings in all cases: 72 h
K-562 [1] = experiment: cell viability (% survival relative to DMSO control, bortezomib = 0%); higher = less cytotoxic
How it was run: (§1)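 Fifteen myeloid leukaemia cell lines (10 AML, 5 CML) were seeded at a density titrated to the linear growth range into 384-well plates pre-printed with compounds at 1, 10, 100, 1000 or 10000 nM in duplicate. Plates were incubated for 72 h at 37 °C with 5% CO2. Viability was then read by CellTiter-Glo luminescence. Each value is percent survival averaged over the duplicates, with vehicle set to 100% and a 10 µM positive control to 0%.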

MOLM-13 [2] = experiment: as above
How it was run: as §1

SHI-1 [3] = experiment: as above
How it was run: as §1

KU-812 [4] = experiment: as above
How it was run: as §1

Mono-Mac-6 [5] = experiment: as above
How it was run: as §1

THP-1 [6] = experiment: as above
How it was run: as §1

ML-2 [7] = experiment: as above
How it was run: as §1

KCL-22 [8] = experiment: as above
How it was run: as §1

HL-60 [9] = experiment: as above
How it was run: as §1

BV-173 [10] = experiment: as above
How it was run: as §1

MV4-11 [11] = experiment: as above
How it was run: as §1

HEL [12] = experiment: as above
How it was run: as §1

KG-1 [13] = experiment: as above
How it was run: as §1

LAMA-84 [14] = experiment: as above
How it was run: as §1

NOMO-1 [15] = experiment: as above
How it was run: as §1

K-562 [16] = system: K-562
How it was run: (§2)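 The IC50 was read from log-logistic dose–response fits. Fifteen myeloid leukaemia lines were exposed for 72 h at 37 °C with 5% CO2 to five tenfold doses from 1 to 10,000 nM in duplicate. ATP luminescence, normalised to vehicle and to a 10 µM positive control, was fitted with four parameters.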

MOLM-13 [17] = system: MOLM-13
How it was run: as §2

SHI-1 [18] = system: SHI-1
How it was run: as §2

KU-812 [19] = system: KU-812
How it was run: as §2

Mono-Mac-6 [20] = system: Mono-Mac-6
How it was run: as §2

THP-1 [21] = system: THP-1
How it was run: as §2

ML-2 [22] = system: ML-2
How it was run: as §2

KCL-22 [23] = system: KCL-22
How it was run: as §2

HL-60 [24] = system: HL-60
How it was run: as §2

BV-173 [25] = system: BV-173
How it was run: as §2

MV4-11 [26] = system: MV4-11
How it was run: as §2

HEL [27] = system: HEL
How it was run: as §2

KG-1 [28] = system: KG-1
How it was run: as §2

LAMA-84 [29] = system: LAMA-84
How it was run: as §2

NOMO-1 [30] = system: NOMO-1
How it was run: as §2

CCN(CCO)CCCC(C)Nc1ccnc2cc(Cl)ccc12 (stereo not given) [Hydroxychloroquine sulfate]
cell viability [%]
Settings	1 nM	10 nM	100 nM	1000 nM	10000 nM
BV-173 [10]	79.7	107	97.6	84.3	94.8
HEL [12]	89.5	102	99	128	98
HL-60 [9]	125	101	96.5	98.5	84.1
K-562 [1]	84.1	97.8	105	101	111
KCL-22 [8]	88.5	113	99.1	119	99.3
KG-1 [13]	95.1	108	94.6	112	114
KU-812 [4]	93	103	105	99	97
LAMA-84 [14]	87	108	106	94.9	93.6
ML-2 [7]	92.7	128	92.2	106	105
MOLM-13 [2]	81	117	91.8	127	108
MV4-11 [11]	78.8	112	93.2	102	106
Mono-Mac-6 [5]	92.7	104	91.8	88.2	86.7
NOMO-1 [15]	94.4	106	98.8	94.9	98.2
SHI-1 [3]	95.5	106	101	127	104
THP-1 [6]	91.5	106	102	92.2	110

Settings	IC50 (cell viability) [µM]
BV-173 [25]	> 10
HEL [27]	> 10
HL-60 [24]	> 10
K-562 [16]	> 10
KCL-22 [23]	> 10
KG-1 [28]	> 10
KU-812 [19]	> 10
LAMA-84 [29]	> 10
ML-2 [22]	> 10
MOLM-13 [17]	> 10
MV4-11 [26]	> 10
Mono-Mac-6 [20]	> 10
NOMO-1 [30]	> 10
SHI-1 [18]	> 10
THP-1 [21]	> 10

CCCc1nc(C)c2c(=O)nc(-c3cc(S(=O)(=O)N4CCN(CC)CC4)ccc3OCC)[nH]n12 [Vardenafil]
cell viability [%]
Settings	1 nM	10 nM	100 nM	1000 nM	10000 nM
BV-173 [10]	98.3	80.3	101	108	82.8
HEL [12]	91.9	111	94.4	102	93.7
HL-60 [9]	107	115	89.2	112	102
K-562 [1]	109	107	93.8	90.8	92.6
KCL-22 [8]	105	110	98.3	95.8	94.6
KG-1 [13]	95.4	95.9	92.8	110	107
KU-812 [4]	95.4	106	92	102	102
LAMA-84 [14]	92.6	95.2	101	92.2	97.8
ML-2 [7]	98.8	96.3	88	97.4	110
MOLM-13 [2]	107	123	71.2	91.2	94.5
MV4-11 [11]	97.9	87.5	85.2	97.7	93.3
Mono-Mac-6 [5]	102	83	106	95.1	102
NOMO-1 [15]	94.4	84.3	96.1	101	93.1
SHI-1 [3]	102	115	89.8	99.7	101
THP-1 [6]	93.8	85	107	108	96.5

Settings	IC50 (cell viability) [µM]
BV-173 [25]	> 10
HEL [27]	> 10
HL-60 [24]	> 10
K-562 [16]	> 10
KCL-22 [23]	> 10
KG-1 [28]	> 10
KU-812 [19]	> 10
LAMA-84 [29]	> 10
ML-2 [22]	> 10
MOLM-13 [17]	> 10
MV4-11 [26]	> 10
Mono-Mac-6 [20]	> 10
NOMO-1 [30]	> 10
SHI-1 [18]	> 10
THP-1 [21]	> 10

O=C(/C=C/c1ccc(O)c(O)c1)OCCc1ccccc1 [Caffeic acid phenethyl ester]
cell viability [%]
Settings	1 nM	10 nM	100 nM	1000 nM	10000 nM
BV-173 [10]	93.2	102	94.3	31.9	1.21
HEL [12]	92.8	96.8	84.1	77.9	24.8
HL-60 [9]	96.3	111	92.2	56.7	16.2
K-562 [1]	90.1	94.8	97.8	95.2	48.5
KCL-22 [8]	87.2	108	93.3	71.9	35.8
KG-1 [13]	97.2	102	94.7	61	23.5
KU-812 [4]	96.1	93	93.2	33.2	7.74
LAMA-84 [14]	105	104	98.1	89.3	36.3
ML-2 [7]	97.8	106	104	61.4	2.29
MOLM-13 [2]	90.7	94.9	81.9	97.2	50.8
MV4-11 [11]	94.5	90.6	111	65	0.624
Mono-Mac-6 [5]	95	92.7	102	79.1	39.4
NOMO-1 [15]	93.6	96.3	86.1	80.8	85.5
SHI-1 [3]	95.7	99.5	103	86.1	69
THP-1 [6]	92.7	100	91.9	86.3	51

Settings	IC50 (cell viability) [µM]
BV-173 [25]	0.664
HEL [27]	4.18
HL-60 [24]	1.07
K-562 [16]	> 10
KCL-22 [23]	2.21
KG-1 [28]	1.1
KU-812 [19]	0.649
LAMA-84 [29]	6.17
ML-2 [22]	1.26
MOLM-13 [17]	> 10
MV4-11 [26]	1.39
Mono-Mac-6 [20]	3.47
NOMO-1 [30]	> 10
SHI-1 [18]	> 10
THP-1 [21]	6.98

Cc1ccc(-c2cc(C(F)(F)F)nn2-c2ccc(S(N)(=O)=O)cc2)cc1 [Celecoxib]
cell viability [%]
Settings	1 nM	10 nM	100 nM	1000 nM	10000 nM
BV-173 [10]	104	93.2	86.4	84.9	83.2
HEL [12]	96.1	104	89.9	99.5	97.1
HL-60 [9]	99.2	103	84.5	188	124
K-562 [1]	96.3	86.6	85.6	95.4	78.4
KCL-22 [8]	101	76.4	90.7	76.9	80
KG-1 [13]	96.8	102	97.4	110	93.8
KU-812 [4]	92.4	91.9	95.6	90.6	62.8
LAMA-84 [14]	98.6	106	94	93.7	79.6
ML-2 [7]	93.5	99.2	105	87.4	76.8
MOLM-13 [2]	81.3	85.7	85.4	139	92.5
MV4-11 [11]	97.5	96.4	83.7	110	79.4
Mono-Mac-6 [5]	104	101	105	104	75.3
NOMO-1 [15]	101	109	94.8	99.4	95.5
SHI-1 [3]	118	104	95.6	112	94.2
THP-1 [6]	105	102	105	95.5	84.7

Settings	IC50 (cell viability) [µM]
BV-173 [25]	> 10
HEL [27]	> 10
HL-60 [24]	> 10
K-562 [16]	> 10
KCL-22 [23]	> 10
KG-1 [28]	> 10
KU-812 [19]	> 10
LAMA-84 [29]	> 10
ML-2 [22]	> 10
MOLM-13 [17]	> 10
MV4-11 [26]	> 10
Mono-Mac-6 [20]	> 10
NOMO-1 [30]	> 10
SHI-1 [18]	> 10
THP-1 [21]	> 10

CCc1c(C(=O)C(N)=O)c2c(OCC(=O)O)cccc2n1Cc1ccccc1 [Varespladib]
cell viability [%]
Settings	1 nM	10 nM	100 nM	1000 nM	10000 nM
BV-173 [10]	90.6	104	85.4	99.3	88.7
HEL [12]	94.8	111	99.2	109	87.6
HL-60 [9]	98.8	101	92.8	96.2	93.2
K-562 [1]	98.5	97.5	110	92.4	99.9
KCL-22 [8]	91.2	107	105	102	96.5
KG-1 [13]	99.5	96.9	99.4	95.9	94
KU-812 [4]	96.1	97.7	98.5	97.6	86.4
LAMA-84 [14]	95.6	100	103	101	81.3
ML-2 [7]	105	105	109	104	89.7
MOLM-13 [2]	80.7	95.3	85.8	101	118
MV4-11 [11]	88.4	109	101	88.3	98.5
Mono-Mac-6 [5]	99.1	101	93.7	100	89
NOMO-1 [15]	102	91.6	101	115	95.2
SHI-1 [3]	106	99	106	92.9	93.4
THP-1 [6]	103	105	100	97.4	96.9

Settings	IC50 (cell viability) [µM]
BV-173 [25]	> 10
HEL [27]	> 10
HL-60 [24]	> 10
K-562 [16]	> 10
KCL-22 [23]	> 10
KG-1 [28]	> 10
KU-812 [19]	> 10
LAMA-84 [29]	> 10
ML-2 [22]	> 10
MOLM-13 [17]	> 10
MV4-11 [26]	> 10
Mono-Mac-6 [20]	> 10
NOMO-1 [30]	> 10
SHI-1 [18]	> 10
THP-1 [21]	> 10
